Test results from patent US8501446B2 (Vertex Pharmaceuticals Incorporated, priority 2004, dated 2013).

Tests used:
JAK3 = target: T1, JAK3 (Homo sapiens, UniProt P52333); experiment: JAK3 inhibition assay (standard radioactive enzyme assay); type: biochemical; conditions: average Ki if more than one value determined
T1 sequence (P52333 1-1124): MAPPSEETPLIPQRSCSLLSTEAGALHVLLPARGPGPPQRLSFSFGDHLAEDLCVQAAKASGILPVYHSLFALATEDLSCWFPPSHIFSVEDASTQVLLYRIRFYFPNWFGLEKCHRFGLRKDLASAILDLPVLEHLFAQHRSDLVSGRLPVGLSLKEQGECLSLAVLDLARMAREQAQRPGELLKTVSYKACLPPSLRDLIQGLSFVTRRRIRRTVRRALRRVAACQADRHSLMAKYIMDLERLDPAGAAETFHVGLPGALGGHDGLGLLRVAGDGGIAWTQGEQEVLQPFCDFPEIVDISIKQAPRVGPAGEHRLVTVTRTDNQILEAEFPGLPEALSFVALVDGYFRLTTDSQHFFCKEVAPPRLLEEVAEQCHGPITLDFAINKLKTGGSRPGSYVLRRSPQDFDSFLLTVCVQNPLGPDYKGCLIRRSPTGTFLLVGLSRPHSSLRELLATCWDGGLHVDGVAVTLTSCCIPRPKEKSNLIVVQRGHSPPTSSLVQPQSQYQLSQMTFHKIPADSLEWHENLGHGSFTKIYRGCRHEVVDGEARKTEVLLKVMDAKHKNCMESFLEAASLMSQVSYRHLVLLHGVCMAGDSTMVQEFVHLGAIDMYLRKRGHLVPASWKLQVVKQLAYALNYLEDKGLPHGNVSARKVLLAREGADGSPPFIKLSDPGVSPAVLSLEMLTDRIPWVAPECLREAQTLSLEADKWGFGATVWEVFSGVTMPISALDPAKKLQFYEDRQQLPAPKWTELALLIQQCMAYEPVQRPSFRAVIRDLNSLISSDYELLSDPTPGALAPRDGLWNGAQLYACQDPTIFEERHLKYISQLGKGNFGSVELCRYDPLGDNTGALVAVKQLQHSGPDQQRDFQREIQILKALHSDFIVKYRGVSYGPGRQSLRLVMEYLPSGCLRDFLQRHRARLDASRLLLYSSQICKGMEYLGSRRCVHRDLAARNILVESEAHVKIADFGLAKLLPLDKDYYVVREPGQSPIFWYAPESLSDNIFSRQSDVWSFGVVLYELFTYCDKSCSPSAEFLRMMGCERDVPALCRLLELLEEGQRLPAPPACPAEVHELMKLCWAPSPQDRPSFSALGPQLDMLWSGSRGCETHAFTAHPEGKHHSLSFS

ROCK I (AA 6-553) = target: T2, ROCK I (AA 6-553) (Homo sapiens, UniProt Q13464); experiment: ROCK inhibition assay, standard coupled enzyme system ("Enzyme"); type: biochemical; conditions: enzyme-linked assay
T2 construct: ROCK I (AA 6-553)
Summary of the method: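 ROCK I (AA 6-553) at 45 nM and 30 °C with 45 μM ATP and 200 μM peptide, in 100 mM HEPES pH 7.5, 10 mM MgCl2, 25 mM NaCl, 2 mM DTT, 1.5% DMSO. ADP output read by a PK/LDH coupled system: 2.5 mM PEP, 350 μM NADH, 30 μg/ml PK, 10 μg/ml LDH.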

T2 sequence (Q13464 6-553, species assumed): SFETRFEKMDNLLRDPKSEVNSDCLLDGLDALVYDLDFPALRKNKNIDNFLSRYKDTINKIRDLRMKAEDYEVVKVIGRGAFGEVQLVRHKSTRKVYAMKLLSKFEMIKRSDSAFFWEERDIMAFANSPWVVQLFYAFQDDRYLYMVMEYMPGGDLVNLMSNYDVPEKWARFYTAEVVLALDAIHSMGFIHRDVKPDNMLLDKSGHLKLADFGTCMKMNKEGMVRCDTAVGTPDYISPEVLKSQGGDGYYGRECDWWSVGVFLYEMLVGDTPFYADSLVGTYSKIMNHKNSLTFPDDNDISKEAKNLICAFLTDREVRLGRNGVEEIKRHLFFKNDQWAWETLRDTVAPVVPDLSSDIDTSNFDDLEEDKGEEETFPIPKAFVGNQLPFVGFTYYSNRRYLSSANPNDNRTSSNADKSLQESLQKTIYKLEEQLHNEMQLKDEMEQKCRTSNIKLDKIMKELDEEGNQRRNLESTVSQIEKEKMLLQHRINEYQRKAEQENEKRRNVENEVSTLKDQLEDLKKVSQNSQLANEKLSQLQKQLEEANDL

SMILES | Ki (JAK3) [nM] | Ki (ROCK I (AA 6-553)) [nM]
COc1cnc2[nH]cc(-c3cccc(N4C[C@@H](C)N(C(C)=O)[C@@H](C)C4)n3)c2c1 [Compound 18] | < 500 | 500 to 5000
CC(=O)N1[C@H](C)CN(c2cccc(-c3c[nH]c4ncc(Cl)cc34)n2)C[C@@H]1C [Compound 19] | < 500 | < 500
CCOC(=O)N1CCCN(c2nccc(-c3c[nH]c4ncc(OC)cc34)n2)CC1 [Compound 33] | < 500 | < 500
COC(=O)c1cnc2[nH]cc(-c3cccc(N4C[C@@H](C)N(C(C)=O)[C@@H](C)C4)n3)c2c1 [Compound 35] | < 500 | < 500
C[C@H](Nc1nc(-c2c[nH]c3ncc(Cl)cc23)ncc1F)C(=O)NCC(F)(F)F [Compound 369] | < 500 | 500 to 5000
C[C@H](Nc1cccc(-c2c[nH]c3ncc(Cl)cc23)n1)c1ccc(F)cc1 [Compound 395] | < 500 | 500 to 5000
